The values below come from patent US7592023B2, “Transplant media” (Trophic Solutions LLC, priority 2000, dated 2009).

The subject of one experiment is MDCK cells. The experiment is described as follows: cytoskeletal structure (actin and tubulin antibodies, confocal fluorescence microscopy) after cold storage, MDCK cells. The class given is cell-based. To be noted: three days at cold temperatures. The text has this: (§1) This Example describes the effect UW solution supplemented with BNP-1 on cytoskeletal structure of kidney cells. Briefly, either MDCK cells or primary kidney cell cultures were stored for three days at cold temperatures in either UW solution, UW solution supplemented with BNP-1, or DMEM. The cells were then labeled with actin and tubulin antibodies and analyzed by confocal fluorescence microscopy. […] In these primary cells, the actin and tubulin filaments maintained a coarse clumpy pattern with considerable cortical condensation near the plasma membrane and only a limited amount of fine fibrillar structure that would be considered more normal.

Experiment [1] relates to primary kidney cell cultures. The experiment is described as follows: cytoskeletal structure (actin and tubulin antibodies, confocal fluorescence microscopy) after cold storage, primary kidney cell cultures. The class given is cell-based. To be noted: three days at cold temperatures.
From the text: as §1

The test system of experiment [2] is bacteria, fungi, and enveloped viruses. Conditions: cited from earlier work.
Experiment [3] concerns panel of organisms in stationary growth phase. To be noted: cited from earlier work.

In the case of “BNP-1: bovine defensin peptide, SEQ ID NO: 37, rlcrivvirvcr; synthesized by Multiple Peptide Systems (RLCRIVVIRVCR; listed as Bos taurus)”, the “actin and tubulin after storage” value is “better maintenance of actin and tubulin” with MDCK cells; “the tubulin and actin were better stained and more persistent” in experiment [1]. For the substance “GPNP: guinea pig defensin, rrcicttrtcrfpyrrlgtcifqnrvytfcc (RRCICTTRTCRFPYRRLGTCIFQNRVYTFCC; Guinea pig cytomegalovirus)”, the “spectrum of antimicrobial activity” value in experiment [2] is on record as “broad spectrum antimicrobial properties verified”. For “HNP-1: defensin isolated from human PMN's, acycripaciagerrygtciyqgrlwafcc”, the “antimicrobial properties, rank among defensins tested” value in experiment [3] is on record as “most potent antimicrobial properties”. For the substance “rabbit NP-1: rabbit neutrophil defensin, vvcacrralclprerragfcrirgrihplccrr (VVCACRRALCLPRERRAGFCRIRGRIHPLCCRR; listed as Oryctolagus cuniculus)”, in experiment [3], the “antimicrobial properties, rank among defensins tested” value is listed as “most potent antimicrobial properties”.
